Legend:
hemolysate released CA = assay: Stopped-flow out-of-equilibrium CA assay on mouse hemolysate; format: biochemical
From the text: (§1) [drawing 3] causing pH to rise exponentially.
Adult C57/BL6 mice (8 to 16 weeks old) were sacrificed by cervical dislocation and blood was immediately collected by cardiac puncture using a 1-mL syringe (Becton, Dickinson and Co., Franklin Lakes, N.J., USA) with a 23 gauge PrecisionGlide needle (Becton, Dickinson and Co.). Prior to blood collection the syringe and needle were rinsed with 0.9% sodium heparin (H4784, Sigma-Aldrich). The blood was transferred to a 1.5-mL microcentrifuge tube, centrifuged in a Beckman Microfuge 16 Microcentrifuge (Beckman, Brea, Calif.) at 600×g for 10 min and the resulting supernatant and buffy coat were removed. To remove any residual extracellular Hb, the pelleted red blood cells (RBCs) were resuspended—in solution A to a 10% hematocrit (Hct)—and centrifuged at 600×g for 5 minutes. This process was repeated 4×. […]
A solution of isolated Hb was obtained by osmotic lysis of 20 μL of freshly prepared mouse RBCs (see above) in pure H2O (1:8 dilution), followed by centrifugation at 15000×g for 5 minutes in a Beckman Microfuge 16 Microcentrifuge, at RT room temperature. […] The supernatant (cleared of cellular debris) then was removed and transferred to a clean 1.5 mL Eppendorf tube for a The Hb concentration of the supernatant was spectroscopic determination of [Hb] using the visible absorbance spectroscopy as described above. […]

[1] = tested on: intact RBCs and hemolysate released CA; assay: Stopped-flow out-of-equilibrium CA assay on mixtures of intact and hemolyzed mouse RBCs; format: biochemical
From the text: as §1
Adult C57/BL6 mice (8 to 16 weeks old) were sacrificed by cervical dislocation and blood was immediately collected by cardiac puncture using a 1-mL syringe (Becton, Dickinson and Co., Franklin Lakes, N.J., USA) with a 23 gauge PrecisionGlide needle (Becton, Dickinson and Co.). Prior to blood collection the syringe and needle were rinsed with 0.9% sodium heparin (H4784, Sigma-Aldrich). The blood was transferred to a 1.5-mL microcentrifuge tube, centrifuged in a Beckman Microfuge 16 Microcentrifuge (Beckman, Brea, Calif.) at 600×g for 10 min and the resulting supernatant and buffy coat were removed. To remove any residual extracellular Hb, the pelleted red blood cells (RBCs) were resuspended—in solution A to a 10% hematocrit (Hct)—and centrifuged at 600×g for 5 minutes. This process was repeated 4×. After the final wash the RBCs were resuspended in solution A to a final Hct of ˜20% to ˜30%.
A solution of isolated Hb was obtained by osmotic lysis of 20 μL of freshly prepared mouse RBCs (see above) in pure H2O (1:8 dilution), followed by centrifugation at 15000×g for 5 minutes in a Beckman Microfuge 16 Microcentrifuge, at RT room temperature. This centrifugation step separated the cellular debris from the Hb containing supernatant. The supernatant (cleared of cellular debris) then was removed and transferred to a clean 1.5 mL Eppendorf tube for a The Hb concentration of the supernatant was spectroscopic determination of [Hb] using the visible absorbance spectroscopy as described above.
Simulated degrees of hemolysis (0-up to 100%) were achieved by mixing different proportions of freshly prepared, ostensibly “intact” RBCs and a lysate (representing 100% lysis), while maintaining the total Hb concentration at 5 μM (Table 2). For example, the mixture simulating ostensibly 0% hemolysis contained 5 μM Hb from RBCs. The mixture simulating ostensibly 50% hemolysis contained 2.5 μM Hb from RBCs and 2.5 μM Hb from the lysate supernatant (added to the RBC mixture in a dilution of ˜1:400 to ˜1:4000, depending on the [Hb]). […]

[2] = Calibration of pH indicator dye (pK from fluorescence-excitation ratio titration curve); format: physicochemical; settings: 10° C., five sets of experiments, ± SD
Protocol: We calibrated the pH indicator dye pyranine at 10° C. by mixing in the SF device two identical solutions that were either the pH-7.50 “pH calibration solution for dye” listed in (Table 1), or variants thereof obtained by titrating the pH as outlined in a footnote to (Table 1). For each pH value X, we computed (I460/I415)pHx as described in the previous section. We fitted the following theoretical titration curve to our experimental data:
[formula] which normalizes the data to the value observed at pH 7.5, and forces the function to have a value of unity at this pH.
We used an iterative non-linear least-squares method to determine b and pK. […] The best-fit values were 7.11±0.01 (SD) for the pK, and 1.39±0.01(SD) for b. We used these values of pK and b and the values for ratio of (I460/I415) in each experiment to calculate pH.

[3] = cited from earlier work

## CC(=O)Nc1nnc(S(N)(=O)=O)s1 [ACZ, acetazolamide]
Hemolysate released CA; 10 μM ACZ in syringe opposite to hemolysate (5%-100% relative amount), 10° C., reduced to the uncatalyzed value
  krx (rate constant of HCO3- + H+ -> CO2 + H2O reaction) in presence of ACZ: ~0.02 s-^1
Hemolysate released CA; ACZ in solution opposite to hemolysate (FIG. 3D)
  time for pHo to reach ~7.5 with ACZ: ~200 s
[1]; 10 μM ACZ in syringe opposite to RBCs
  extracellular CA enzyme activity with ACZ: totally blocked
[1]; 10 μM ACZ in syringe opposite to RBCs (5%-100% hemolysis of RBCs), 10° C., reduced to the uncatalyzed value
  krx (rate constant of HCO3- + H+ -> CO2 + H2O reaction) in presence of ACZ: ~0.02 s-^1
[1]; ACZ in solution opposite to RBCs (FIG. 4D)
  time for pHo to reach ~7.5 with ACZ: ~200 s

## O=S(=O)([O-])c1cc(O)c2ccc3c(S(=O)(=O)[O-])cc(S(=O)(=O)[O-])c4ccc1c2c34.[Na+].[Na+].[Na+] [pyranine]
[2]
  pK (best-fit value): 7.11±0.01
[3]
  PKa in previous study: around 7.3
